In patent US6949679B1, “Polyamine transport inhibitors” (Universite Laval, priority 1998, dated 2005):

Legend:
polyamine transporter = experiment: Inhibition of [3H]spermidine uptake in CHO-K1 cells; format: cell-based, Chinese hamster; settings: [3H]spermidine as substrate
Description: To 1 ml of an extemporaneously prepared, DTT-free solution of MESC (20 mM in […]) were added 50 μl of 50 mM Tris-HCl (pH 7.0) and 105 μl of a 40 mM solution of either iodoacetamide, LY iodoacetamide or ASIB in a light-protected microcentrifuge tube, and the mixture was incubated for 2 hours at 37° C. […] Excess iodoacetamide was then inactivated by adding DTT to a final concentration of 40 mM and incubating the solution for 2 hours at 37° C. […] The effect of the respective DTT-inactivated iodoacetamide on spermidine transport was determined in parallel by incubating cells with the same reaction mixture from which MESC was omitted. […] J. Biol. […] Cells were then lysed with 200-μl aliquot of 1 N NaOH and incubated for 30 minutes at 60° C. After neutralization with 200 μl of 1 N HCl, radioactivity was determined from a 250-μl of the cell lysate by scintillation counting. Uptake activity was expressed per amount of total cellular protein as determined by the method of Bradford (Bradford, M. M. 1976. Anal. Biochem. 72: 248-254). […] K[…] Ki and Vmax values were then estimated by Lineweaver-Burke analysis. For competitive inhibitors, Ki values were also estimated by measuring uptake activity in the presence of logarithmically increasing concentrations of antagonist, and using the Cheng-Prusoff equation (Cheng, Y.-C. and Prusoff, W. H. 1973. Biochem. Pharmacol. 22: 3099-3108) by iterative curve fitting for a sigmoidal curve. For mixed competitive/noncompetitive inhibition, two methods were used to calculate kinetic constants. […] C. 1976. Enzymes, 3rd Ed., Academic Press, San Diego, Calif.). […] C. 1976. Enzymes, 3rd Ed., Academic Press, San Diego, Calif.). Intracellular Accumulation

ZR-75-1 cells [1] = experiment: Intracellular accumulation of inhibitor and polyamine contents (HPLC) in ZR-75-1 cells; format: cell-based, human
ZR-75-1 cells [2] = experiment: Effect on ZR-75-1 cell proliferation (11 days, DNA content); format: cell-based, human
Description: For growth studies, ZR-75-1 cells were cultured in MEZR medium or in phenol red-free RPMI 1640 supplemented with 2 mM L-glutamine, 1 mM sodium pyruvate, 15 mM Hepes, antibiotics, 1 nM 17β-estradiol, 0.5 μg of bovine insulin per ml and 5% (v/v) charcoal-treated fetal bovine serum (SD medium), as indicated in the text. When polyamines or polyamine analogs were added to serum-containing media, 1 mM aminoguanidine was added to inhibit bovine serum amine oxidase (BSAO) activity (Morgan, D. M. L. 1989, in The Physiology of Polyamines (Bachrach, U., and Heimer, Y. M. eds) Vol. I, pp. 203-229, CRC Press, Boca Raton). The effect of the transport inhibitors on cell growth was measured by incubating ZR-75-1 cells for 11 days in medium supplemented with antagonist, polyamines and/or 1 mM DFMO as indicated, followed by colorimetric determination of DNA content with 3,4-diaminobenzoic acid (Simard, J., Dauvois, S., Haagensen, D. E., Lėvesque C., Mėrand, Y. and Labriė, F. 1990. Endocrinology 126: 3223-3231). Medium was changed every other day in these experiments because of the slow reaction of the compound with an unknown component present in the IMEM and RPMI 1640 medium formulation.
The biocompatibility of DESC, MESC, and DEASC was thus evaluated during a long-term (11-day) incubation with ZR-75-1 cells grown in RPMI 1640 containing 10% (v/v) FBS in the absence and presence of 1 mM aminoguanidine. […] Weak growth inhibition caused by the mixed MESC-cysteamine disulfide, however, apparently involved degradation by a copper amine oxidase.

[3] = 200 μM compound + 200 μM CHX, 1 h
[4] = 200 μM compound + 200 μM CHX, 6 h

| SMILES | Ki (polyamine transporter) [µM] | Spermine intracellular content (ZR-75-1 cells [1]; 50 μM compound, 1 h) [nmol/mg protein] | DESC accumulation as % of accumulation measured for spermine under identical conditions (ZR-75-1 cells [1]; 200 μM DESC, 6-hour incubation) | DESC intracellular content (ZR-75-1 cells [1]; [3]) [nmol/mg protein] | Spermidine intracellular content (ZR-75-1 cells [1]; [3]) [nmol/mg protein] | Spermine intracellular content (ZR-75-1 cells [1]; [3]) [nmol/mg protein] | DESC intracellular content (ZR-75-1 cells [1]; [4]) [nmol/mg protein] | Spermine intracellular content (ZR-75-1 cells [1]; [4]) [nmol/mg protein] | Spermine intracellular content (ZR-75-1 cells [1]; 200 μM compound, 1 h) [nmol/mg protein] | Spermine intracellular content (ZR-75-1 cells [1]; 200 μM compound, 6 h) [nmol/mg protein] | Effect on cell growth (ZR-75-1 cells [2]; 50 μM, with or without 1 mM aminoguanidine) | Effect on cell growth (ZR-75-1 cells [2]; 200 μM) | Spermine intracellular content (ZR-75-1 cells [1]; 50 μM compound, 6 h) [nmol/mg protein] | Decrease in cell growth (ZR-75-1 cells [2]; 200 μM, not blocked by aminoguanidine) [%] |
| --- | --- | --- | --- | --- | --- | --- | --- | --- | --- | --- | --- | --- | --- | --- |
| NCCCNCCCC(NCCCN)C(=O)NCCSSCCNC(=O)C(CCCNCCCN)NCCCN (stereo not drawn) [DESC, 2,2′-dithiobis(N-ethyl-spermine-5-carboxamide)] | 0.92 ± 0.15 | 8.27 ± 0.81 | about 1.5% | <0.01 | 0.75 ± 0.04 | 9.57 ± 0.31 | 0.10 | 9.55 ± 0.13 | 8.77 ± 0.79 | 8.66 ± 0.26 | only mildly growth inhibitory | abrupt, aminoguanidine-resistant increase in toxicity | – | – |
| NCCCNCCCC(NCCCN)C(=O)NCCS (stereo not drawn) [MESC, N-(2-mercaptoethyl)spermine-5-carboxamide] | 33.6 ± 7.2 | 7.77 ± 0.06 | – | – | – | – | – | – | 8.93 ± 0.53 | 8.32 ± 0.43 | – | – | 8.13 ± 0.17 | 35 |
